Publication PMC5995184, “Potent anti-leukemic activity of a specific cyclin-dependent kinase 9 inhibitor in mouse models of chronic lymphocytic leukemia” (Oncotarget, 2018)

Legend:
MEC-1 cells = experiment: MEC-1 cell line apoptosis, viability, MCL-1/BCL-2 and cell cycle (flow cytometry); type: cell-based
Experimental: The MEC-1 cell line was obtained from the DSMZ (Braunschweig, Germany) and was cultured in RPMI (10% fetal bovine serum). A LDC526 stock solution was prepared with DMSO, diluted and added to the cultures to reach the specified concentrations. Samples (percentage of CD19+CD5+ CLL cells >90%) of n=37 CLL patients (Table 1) and n=6 healthy normal donor controls were used for experiments after obtaining informed consent according to institutional guidelines, approved by the Ethics Commission of the University of Essen-Duisburg. Peripheral blood mononuclear cells (PBMC) were isolated using Lymphoprep ([…] Technologies, Cologne, Germany) density gradient centrifugation and were used directly for NSG transplantation or in vitro experiments. Untouched normal donor B cells were isolated with a B cell isolation kit (Miltenyi, Bergisch Gladbach, Germany) according to the manufacturer’s instructions. For in vitro experiments, cells were maintained in RPMI supplemented with 10% fetal bovine serum, penicillin and streptomycin.
Apoptosis and cell death were determined by using Annexin V (BD Biosciences, Heidelberg, Germany) and 4′,6-Diamidin-2-phenylindol (DAPI, Sigma-Aldrich) staining. Erythrocytes of murine peripheral blood samples were lysed with NH4Cl hypotonic solution. Single cell suspensions of murine spleens were prepared as previously described. Murine cells were stained with antibodies directed against murine CD3 (clone 145-2C11), CD5 (53-7.3) and CD19 (1D3), respectively. For the detection of human cells in NSG spleens antibodies against human CD3 (clone SK7), CD4 (SK3), CD5 (L17F12), CD8 (SK1), CD19 (J3-119 or SJ25C1) and CD45 (2D1) were used (purchased from BD Bioscience, Biolegend and Beckman Coulter). Flow cytometric analysis was carried out on a LSRII flow cytometer (BD Biosciences, Heidelberg, Germany). Flow cytometric data were analyzed with BD FACSDiva or FlowJo software (FLOWJO, LLC, Ashland, OR, USA). Intracellular staining for MCL-1 and BCL-2 (anti-MCL-1 [clone D2W9E, Cell Signaling Technology, Leiden, The Netherlands] and matched isotype control [clone DA1E, Cell Signaling Technology]; anti-BCL-2 [clone Bcl-2/100, BD Bioscience] and matched isotype control [clone MOPC-21, BD Bioscience]) within MEC-1 and primary CLL cells was performed with the FoxP3 / Transcription factor staining buffer set (eBioscience/Thermo Fisher Scientific, Dreieich, Germany) according to the manufacturer’s instructions. Before permeabilization and antibody incubation cells were stained with a fixable viability dye (eFluor 450, eBioscience/Thermo Fisher Scientific). Before adding the anti-MCL-1 and anti-BCL-2 antibodies permeabilized cells were blocked with 2% mouse serum and 2% rabbit serum (Sigma-Aldrich) in permeabilization buffer. Intracellullar murine lymphocyte staining for Bcl-2 was carried out with the BD Cytofix/Cytoperm kit according to the manufacturer’s instructions. A Hamster Anti-mouse Bcl-2 (clone 3F119, BD Biosciences) and a corresponding isotype control (clone A19-3) were used. Dead cells and doublets were excluded by and FSC/SSC gating and positive DAPI or eFluor 450 viability dye staining, respectively. To assess the impact of LDC526 on the cell-cycle status of MEC-1 cells we used the BrdU Flow Kit according to the manufacturer’s protocol (BD Bioscience). […]
Data were analyzed with GraphPad Prism 7 software. Differences were assessed by unpaired or paired Student t tests if not indicated otherwise. […]

CDK1-Cyclin B1 = target: T1, CDK1-Cyclin B1 (Homo sapiens, UniProt P06493); experiment: FRET-based LANCE Ultra in vitro enzymatic kinase assay, CDK1; type: biochemical
T1 construct: purchased Carna Biosciences
Experimental: (§1) IC50 values for CDK inhibitors were determined using the fluorescence resonance energy transfer (FRET)-based LANCE Ultra KinaSelect Ser/Thr kit (Perkin Elmer). Kinase activity and inhibition were measured according to the manufacturer’s instructions and as previously described. […] FRET signals were recorded in a time-resolved manner in a Perkin Elmer EnVision reader. Purified cyclin-kinase pairs were obtained from the following suppliers: Carna Biosciences (CDK1-Cyclin B1, CDK6-Cyclin D3, CDK7-Cyclin H-MAT1), ProQinase (CDK2-Cyclin A) and Invitrogen (CDK9-Cyclin T1).
(§2) Data were analyzed with GraphPad Prism 7 software. Differences were assessed by unpaired or paired Student t tests if not indicated otherwise. Two-sided probabilities of less than 0.05 were considered significant. Nonlinear regression sigmoidal dose-response curve fit was used to determine the IC50 values and to generate graphs.

CDK6-Cyclin D3 [1] = experiment: FRET-based LANCE Ultra in vitro enzymatic kinase assay, CDK6; type: biochemical
Experimental: as §1, §2

CDK6-Cyclin D3 [2] = target: T2, CDK6-Cyclin D3 (Homo sapiens, UniProt Q00534); experiment: as above; type: biochemical
T2 construct: purchased Carna Biosciences
Experimental: as §1, §2

T2 sequence (Q00534 whole entry): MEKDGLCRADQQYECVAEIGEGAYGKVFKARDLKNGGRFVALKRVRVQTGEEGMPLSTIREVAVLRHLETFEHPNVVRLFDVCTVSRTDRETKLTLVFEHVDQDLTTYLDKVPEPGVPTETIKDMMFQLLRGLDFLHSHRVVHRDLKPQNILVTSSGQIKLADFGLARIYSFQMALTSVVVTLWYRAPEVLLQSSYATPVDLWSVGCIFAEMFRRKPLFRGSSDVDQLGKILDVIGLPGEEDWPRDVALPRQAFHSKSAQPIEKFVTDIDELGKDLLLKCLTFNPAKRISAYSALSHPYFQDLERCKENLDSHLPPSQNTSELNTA
T2 sequence (P30281 whole entry partner): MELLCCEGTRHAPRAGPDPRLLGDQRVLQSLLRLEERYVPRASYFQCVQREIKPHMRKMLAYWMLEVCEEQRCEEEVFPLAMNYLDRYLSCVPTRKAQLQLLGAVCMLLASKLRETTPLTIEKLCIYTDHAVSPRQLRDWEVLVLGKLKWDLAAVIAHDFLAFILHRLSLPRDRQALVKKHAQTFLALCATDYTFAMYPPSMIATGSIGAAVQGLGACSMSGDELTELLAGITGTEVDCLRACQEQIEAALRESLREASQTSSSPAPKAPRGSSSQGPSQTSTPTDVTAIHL
T1 sequence (P06493 whole entry): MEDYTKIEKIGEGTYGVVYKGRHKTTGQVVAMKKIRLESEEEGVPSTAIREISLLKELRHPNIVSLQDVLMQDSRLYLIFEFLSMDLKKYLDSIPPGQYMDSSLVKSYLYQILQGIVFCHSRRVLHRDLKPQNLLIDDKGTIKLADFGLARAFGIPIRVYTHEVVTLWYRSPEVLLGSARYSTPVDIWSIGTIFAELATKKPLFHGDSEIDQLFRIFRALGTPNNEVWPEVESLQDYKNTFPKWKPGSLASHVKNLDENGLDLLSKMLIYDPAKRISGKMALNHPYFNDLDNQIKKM
T1 sequence (P14635 whole entry partner): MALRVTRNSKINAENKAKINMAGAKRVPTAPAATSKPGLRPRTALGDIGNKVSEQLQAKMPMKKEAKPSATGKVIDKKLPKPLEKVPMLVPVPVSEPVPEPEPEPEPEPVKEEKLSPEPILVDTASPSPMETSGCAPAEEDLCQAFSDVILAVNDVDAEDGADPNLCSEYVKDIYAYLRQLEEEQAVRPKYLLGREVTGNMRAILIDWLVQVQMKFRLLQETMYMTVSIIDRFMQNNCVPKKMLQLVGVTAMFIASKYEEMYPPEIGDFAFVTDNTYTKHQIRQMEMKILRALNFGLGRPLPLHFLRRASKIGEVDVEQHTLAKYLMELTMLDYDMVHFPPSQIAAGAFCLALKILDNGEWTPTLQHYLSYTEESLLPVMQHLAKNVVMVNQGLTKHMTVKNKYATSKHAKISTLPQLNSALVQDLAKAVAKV

## COc1cc(F)ccc1-c1ncnc(Nc2cccc(CS(N)(=O)=O)c2)n1 [LDC526, (3-((4-(4-fluoro-2-methoxyphenyl)-1,3,5-triazin-2-yl)amino)phenyl)methane-sulfonamide]
MEC-1 cells; 4 hours, 500 nM and 1 μM
  MEC-1 apoptosis (Annexin V+, DAPI-): significantly increased MEC-1 apoptosis
MEC-1 cells; 4 hours, increasing concentrations
  intracellular MCL-1 protein levels in MEC-1: reduced
MEC-1 cells; 24 hours, 10 μM
  MEC-1 S-phase entry (BrdU): significantly decreased
MEC-1 cells; 24 hours, concentrations up to 1 μM
  MEC-1 cell cycle (BrdU): did not alter the cell cycle
MEC-1 cells; Homo sapiens, MEC1, 48 hours incubation, read-out: IC50, MEC-1 absolute viable cell numbers
  IC50: 550 nM
CDK1-Cyclin B1
  selectivity versus CDK9 compared to CDK1: 82 fold
CDK6-Cyclin D3 [1]
  selectivity versus CDK9 compared to CDK6: > 900 fold
CDK6-Cyclin D3 [2]
  IC50: > 10000 nM
